The values below come from article PMC7504466, “In-Vitro and In-Silico Evaluations of Heterocyclic-Containing Diarylpentanoids as Bcl-2 Inhibitors Against LoVo Colorectal Cancer Cells” (Molecules, 2020).

Molecules are shown by their SMILES.

The subject of experiment [1] is Bad. Kind of experiment: Western blot, Bad. The format is cell-based, human. The note with it: 5 µM, LoVo cells, detectable only after 48 h. As for the experimental part:
(§1) Lovo cells (1.5 × 10^4 cells/cm^2) were seeded in a T75 flask and incubated at 37 °C and 5% CO2 atmosphere overnight. The seeded cells were then treated with selected compounds at 5 µM of 2e for 24 h, 48 h, and 72 h. After treatment, the cells were harvested and lysed with phenylmethanesulfonyl fluoride (PMSF)-containing cell lysis buffer. The lysates were then centrifuged at 13,300× g for 15 min and the supernatant was collected. Protein concentrations of all samples were determined using a BCA assay kit (Thermo Scientific Inc., Waltham, MA, USA). Equal amounts of protein were electrophoresed in 12% and 20% SDS-polyacrylamide gel (SDS-PAGE), and electro-transferred onto a 0.22-μm polyvinyldene difluoride membrane. Each membrane was blocked with 5% (w/v) skim milk at room temperature for 1 h followed by overnight incubation with specific primary antibodies (1:1000) at 4 °C. Subsequently, the respective membrane was washed thrice with TBST (0.05% (v/v) of tween-20) followed by 1 h incubation with secondary antibody (1:10,000). Upon completion, the membrane was washed thrice with 1X Tris-Buffered Saline, 0.1% Tween® 20 Detergent (TBST) and the immune reactive bands were developed using SuperSignal West Dura Extended Duration Substrate (Thermo Scientific Inc., Waltham, MA, USA). […]

In experiment [2] the test system is normal human dermal fibroblasts (NHDF). As to the kind of experiment: MTT cytotoxicity assay, normal human dermal fibroblasts. The format is cell-based. The note with it: 72 h post-treatment. The procedure: The in-vitro cytotoxic activity of the synthesized compounds on seven human CRC cell lines including KRAS (T84, SW620, LoVo) and BRAF (HT29, NCI-H508, RKO and LS411N) mutated cells were determined by MTT assay as previously described. The IC50 values obtained are summarized in Table 2 in which 5-FU and normal human dermal fibroblasts (NHDF) were used as controls. Meanwhile, a heatmap (Figure 3) was also generated using GraphPad Prism v7.0 (GraphPad Software, La Jolla, CA, USA) to visualize the cytotoxic trends of synthesized compounds graphically.
A panel of KRAS (T84, SW620 and LoVo) and BRAF (HT29, NCI-H508, RKO and LS411N) mutated human CRC cell lines were grown in Dulbecco’s modified Eagle’s medium (DMEM) containing 10% fetal bovine serum (FBS) and 1% penicillin/streptomycin at 37 °C under 5% CO2 while NHDF cells were cultured in DMEM with 5% FBS under the same condition. The culture medium was replenished every two days until the cells reached 80–90% confluency for further usage. All cell lines (T84, ATCC®CCL-248™; SW620, ATCC®CCL-227™; LoVo, ATCC®CCL-229™; HT-29, ATCC®HTB-38; NCI-H508, ATCC®CCL-253™; RKO, ATCC®CRL-2577; LS411N, ATCC®CRL-2159; NHDF, ATCC® PCS-201-010™) were purchased from American Type culture Collections (ATCC, Manassas, VA, USA).
LoVo cells (1.5–5 × 10^3 cells/well) were seeded into a 96 well plate and incubated at 37 °C and 5% CO2 atmosphere for 24 h. On the following day, the cell media were replaced with 100 µL of test compounds at various concentration. The final concentration of DMSO in the well is 0.1%. After 72 h of incubation, culture medium was removed and 100 µL of MTT (thiazoyl blue tertrazolium bromide) solution (0.5 mg/mL in culture media) was added. The resultant plates were then further incubated at 37 °C for 4 h. Upon completion, the MTT solution was removed and the formazan salts formed were dissolved in 100 µL of DMSO. The absorbance was recorded with a microplate reader at 570 nm. The IC50 values of tested compounds were calculated from three independent experiments.

Experiment [3] relates to Bcl-2. As to the kind of experiment: Western blot, Bcl-2. The note with it: 5 µM, LoVo cells, as early as 24 h post-treatment. The format is cell-based, human. As for the experimental part: as §1

For `O=C1C(=Cc2ccccc2Br)CSCC1=Cc1ccccc1Br` [Compound 2e, 3,5-Bis(2-bromobenzylidene)tetrahydro-4H-thiopyran-4-one], in experiment [1], the Bad expression entry is listed as “up-regulation”. For the same compound, it took 7.1 µM to reach half-maximal inhibition in experiment [2] (IC50). For the same compound, in experiment [3], the Bcl-2 expression entry is reported as “significantly inhibited”.
